Test results taken from patent publication US9006209B2, “Uracyl spirooxetane nucleoside phosphoramidates” (Janssen Products, LP, priority 2010, dated 2015).

Assays:
HIV = settings: described in Org. Biomol. Chem., 2003, 3514-3526; cited from earlier work
[1] = test system: HCV replicon (HCV type 1b NS3-NS5B) in Huh-7 luc/neo cells; assay: HCV replicon assay (Huh-Luc, luciferase readout); format: cell-based, HCV genotype 1b; settings: Hepatitis C virus, Huh-7, 72 h, three days incubation, luciferase activity
Method: (§1) The in vitro antiviral activity against HCV of the compound of formula I was tested in a cellular HCV replicon system based on Lohmann et al. (1999) Science 285:110-113, with the further modifications described by Krieger et al. (2001) Journal of Virology 75: 4614-4624 (incorporated herein by reference), which is further exemplified in the examples section. This model, while not a complete infection model for HCV, is widely accepted as the most robust and efficient model of autonomous HCV RNA replication currently available. It will be appreciated that it is important to distinguish between compounds that specifically interfere with HCV functions from those that exert cytotoxic or cytostatic effects in the HCV replicon model, and as a consequence cause a decrease in HCV RNA or linked reporter enzyme concentration. […]
The replicon cells were plated in 384-well plates in the presence of the test and control compounds which were added in various concentrations. Following an incubation of three days, HCV replication was measured by assaying luciferase activity (using standard luciferase assay substrates and reagents and a Perkin Elmer ViewLux™ ultraHTS microplate imager). […] The inhibitory activity of the compound on luciferase activity was monitored on the Huh-Luc cells, enabling a dose-response curve for the test compound. […]

[2] = Cytotoxicity in Huh-7 cells; format: cell-based; settings: human
Method: as §1, with “concentration. Assays are known in the field for the evaluation of cellular cytotoxicity based for example on the activity of mitochondrial enzymes using fluorogenic redox dyes such as resazurin. Furthermore, cellular counter screens exist for the evaluation of non-selective inhibition of linked reporter gene activity, such as firefly luciferase.” for “concentration.”

## Cc1cn([C@@H]2O[C@H](CO)[C@@H](O)[C@]23CCO3)c(=O)[nH]c1=O [1-(2-O,2-C-ethano-β-D-ribofuranosyl)thymine]
HIV
  activity against HIV: no activity was found

## O=c1ccn([C@@H]2O[C@H](CO)[C@@H](O)[C@]23CCO3)c(=O)[nH]1 [1-(2-O,2-C-ethano-β-D-ribofuranosyl)uracil]
HIV
  activity against HIV: no activity was found

## CCCCOC(=O)[C@H](C)N[P@@](=O)(OC[C@H]1O[C@@H](n2ccc(=O)[nH]c2=O)[C@@]2(CCO2)[C@@H]1O)Oc1ccccc1 [P1, butyl N-[(R)-{[(4R,5R,7R,8R)-5-(2,4-dioxo-3,4-dihydro-pyrimidin-1(2H)-yl)-8-hydroxy-1,6-dioxaspiro[3.4]oct-7-yl]methoxy}(phenoxy)-phosphoryl]-L-alaninate]
[1]
  EC50: 4.47 µM
[2]
  CC50: > 98 µM
